Results published in patent US7629130B2 (priority 2005, dated 2009).
Where two headings read alike, the source gives them in different places.

Experiments:
[1] = test system: L. pneumophila within Dictyostelium; type: cell-based, Legionella pneumophila; settings: within 6-8 days; 10 μM LY (FIG. 2C); MOI 1
Dictyostelium [2] = test system: Dictyostelium
Dictyostelium [3] = type: cell-based, Dictyostelium discoideum
[4] = test system: Legionella-containing vacuoles in calnexin-GFP-labeled Dictyostelium; type: cell-based, Dictyostelium discoideum
[5] = test system: Legionella-containing vacuoles in Dictyostelium; type: cell-based, Dictyostelium discoideum; settings: 20 μM LY; 1 h infection; p<10^−9
[6] = latrunculin B 1-50 μM, cytochalasin A 1-50 μM, cytochalasin D up to 50 μM, 1 h prior infection

O=c1cc(N2CCOCC2)oc2c(-c3ccccc3)cccc12 [LY294002]
factor more wild-type L. pneumophila released compared to wild-type Dictyostelium [1]: ~100
viability of Dictyostelium (PFU) (Dictyostelium [2]): did not affect viability
viability of Dictyostelium Ax3 in MB medium (Dictyostelium [2]): as viable as untreated
viability of Dictyostelium at later time points (PFU on K. pneumoniae lawns) (Dictyostelium [2]): reduced viability
change in phagocytosis of wild-type L. pneumophila (Dictyostelium [3]; wild-type Dictyostelium treated with PI3K inhibitor (FIG. 2A: 5 μM wortmannin)): −33%
portion of spacious LCVs ([4]; 15 min post infection, 20 μM LY-treated wild-type Dictyostelium (untreated 25%)): less than 5%
portion of spacious LCVs ([4]; within 2 h, 20 μM LY-treated wild-type Dictyostelium (untreated 40%)): 20%
factor more SidC localized to LCV membranes compared to untreated wild-type Dictyostelium [5]: ~1.5
viability of L. pneumophila (CFU) (L. pneumophila; wortmannin 0.1-10 μM, LY294002 5-25 μM, HL5 medium): did not affect viability

C=C1[C@@H](C)[C@H]2[C@H](Cc3ccccc3)NC(=O)[C@]23OC(=O)/C=C/C(=O)CCC[C@@H](C)C/C=C/[C@H]3[C@@H]1O [cytochalasin A]
Icm/Dot-dependent phagocytosis (Dictyostelium [3]): blocked
inhibition of phagocytosis (uptake) of L. pneumophila (Dictyostelium [3]; [6]): blocked phagocytosis in a dose-dependent manner

C=C1[C@@H](C)[C@H]2[C@H](Cc3ccccc3)NC(=O)[C@]23[C@H](OC(C)=O)/C=C/[C@@](C)(O)C(=O)[C@@H](C)C/C=C/[C@H]3[C@@H]1O [cytochalasin D]
inhibition of phagocytosis (uptake) of L. pneumophila (Dictyostelium [3]; [6]): did not prevent uptake

C/C1=C/C(=O)O[C@@H]2C[C@@H](CC[C@H](C)/C=C\CC1)O[C@@](O)([C@@H]1CSC(=O)N1)C2 [latrunculin B]
Icm/Dot-dependent phagocytosis (Dictyostelium [3]): blocked
inhibition of phagocytosis (uptake) of L. pneumophila (Dictyostelium [3]): blocked phagocytosis in a dose-dependent manner
phagocytosis (FIG. 1) (Dictyostelium [3]): blocked

COC[C@H]1OC(=O)c2coc3c2[C@@]1(C)C1=C(C3=O)[C@@H]2CCC(=O)[C@@]2(C)C[C@H]1OC(C)=O [wortmannin]
viability of Dictyostelium (PFU) (Dictyostelium [2]): did not affect viability
viability of Dictyostelium Ax3 in MB medium (Dictyostelium [2]): as viable as untreated
change in phagocytosis of wild-type L. pneumophila (Dictyostelium [3]): −19%
viability of L. pneumophila (CFU) (L. pneumophila): did not affect viability
